Laboratory results from patent US11208400B2, “Substituted 6-(1H-pyrazol-1-yl)pyrimidin-4-amine derivatives and uses thereof” (Bayer Aktiengesellschaft, priority 2016, dated 2021).

Target: T1, human Npt2a (Homo sapiens, UniProt Q06495)
T1 construct: expressed in transfected cells
T1 sequence (Q06495 1-639): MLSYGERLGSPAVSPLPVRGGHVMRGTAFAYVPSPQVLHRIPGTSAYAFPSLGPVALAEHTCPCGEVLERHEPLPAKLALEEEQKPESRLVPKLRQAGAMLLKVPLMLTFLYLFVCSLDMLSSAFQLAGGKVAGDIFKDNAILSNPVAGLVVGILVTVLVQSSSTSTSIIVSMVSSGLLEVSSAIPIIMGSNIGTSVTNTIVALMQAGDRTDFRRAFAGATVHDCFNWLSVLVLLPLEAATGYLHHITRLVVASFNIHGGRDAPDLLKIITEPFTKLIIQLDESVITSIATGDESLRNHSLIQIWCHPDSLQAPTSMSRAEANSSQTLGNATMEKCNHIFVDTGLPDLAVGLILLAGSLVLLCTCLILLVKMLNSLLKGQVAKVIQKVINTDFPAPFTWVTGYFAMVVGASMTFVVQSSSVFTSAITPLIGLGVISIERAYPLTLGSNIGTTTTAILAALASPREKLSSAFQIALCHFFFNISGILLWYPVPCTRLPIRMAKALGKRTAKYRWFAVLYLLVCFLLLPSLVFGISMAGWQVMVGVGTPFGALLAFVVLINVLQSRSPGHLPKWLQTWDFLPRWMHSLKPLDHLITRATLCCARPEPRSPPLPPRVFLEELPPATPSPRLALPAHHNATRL
Assay: Npt2a activity cell based assay, membrane potential dye, CHO T-REx hNpt2a cells
Conditions: doxycycline-induced, depolarization by sodium phosphate influx, average or median values if tested more than once
Summary of the method: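 Cells were doxycycline-induced CHO T-REx hNpt2a, dye-loaded and pretreated 5 min at RT with 1 nM–50 μM compound in Na-free pH 7.4 buffer. IC50 was fit to the post/pre-trigger fluorescence ratio.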

Row | SMILES | IC50 [nM]
1 | Cc1cc(C)n(-c2cc(Nc3c(C)c(-c4ccc(OC(F)(F)F)cc4)nn3C)ncn2)n1 [Example 116, 6-(3,5-dimethyl-1H-pyrazol-1-yl)-N-{1,4-dimethyl-3-[4-(trifluoromethoxy)phenyl]-1H-pyrazol-5-yl}pyrimidin-4-amine] | 92.5
2 | Cc1cc(C)n(-c2cc(Nc3nn(C)c(-c4ccc(C(F)(F)F)cc4)c3C)ncn2)n1 [Example 101, 6-(3,5-dimethyl-1H-pyrazol-1-yl)-N-{1,4-dimethyl-5-[4-(trifluoromethyl)phenyl]-1H-pyrazol-3-yl}pyrimidin-4-amine] | 11.5
3 | Cc1cc(C)n(-c2cc(Nc3c(C)c(-c4ccc(C(F)F)cc4)nn3C)ncn2)n1 [Example 407, N-{3-[4-(difluoromethyl)phenyl]-1,4-dimethyl-1H-pyrazol-5-yl}-6-(3,5-dimethyl-1H-pyrazol-1-yl)pyrimidin-4-amine] | 29
4 | CCc1c(Nc2cc(-n3nc(C)c(CO)c3C)ncn2)nn(C)c1-c1ccc(F)cc1 [Example 58, [1-(6-{[4-ethyl-5-(4-fluorophenyl)-1-methyl-1H-pyrazol-3-yl]amino}pyrimidin-4-yl)-3,5-dimethyl-1H-pyrazol-4-yl]methanol] | 760
5 | Cc1cc(C)n(-c2cc(Nc3c(C#N)c(-c4ccc(F)cc4)nn3C)ncn2)n1 [Example 24, 5-{[6-(3,5-dimethyl-1H-pyrazol-1-yl)pyrimidin-4-yl]amino}-3-(4-fluorophenyl)-1-methyl-1H-pyrazole-4-carbonitrile] | 310
6 | COc1c(-c2ccc(C#N)cc2)nn(CC2CC2)c1Nc1cc(-n2nc(C)c(C(C)OC)c2C)ncn1 (racemic) [Example 333, (±)-4-{1-(cyclopropylmethyl)-4-methoxy-5-[(6-{4-[1-methoxyethyl]-3,5-dimethyl-1H-pyrazol-1-yl}pyrimidin-4-yl)amino]-1H-pyrazol-3-yl}benzonitrile] | 54
7 | Cc1nn(-c2cc(Nc3c(C)c(-c4ccc(C(F)F)cc4)nn3CC3CC3)ncn2)c(C)c1C(C)(C)O [Example 396, 2-{1-[6-({1-(cyclopropylmethyl)-3-[4-(difluoromethyl)phenyl]-4-methyl-11H-pyrazol-5-yl}amino)pyrimidin-4-yl]-3,5-dimethyl-1H-pyrazol-4-yl}propan-2-ol] | 16
8 | Cc1cc(C)n(-c2cc(Nc3nn(C)c(-c4ccc(F)cc4)c3C3CC3)ncn2)n1 [Example 41, N-[4-cyclopropyl-5-(4-fluorophenyl)-1-methyl-1H-pyrazol-3-yl]-6-(3,5-dimethyl-1H-pyrazol-1-yl)pyrimidin-4-amine] | 11
9 | Cc1nn(-c2cc(Nc3c(C)c(-c4ccc(C#N)cc4)nn3CC3CC3)ncn2)c(C)c1F [Example 268, 4-[1-(cyclopropylmethyl)-5-{[6-(4-fluoro-3,5-dimethyl-1H-pyrazol-1-yl)pyrimidin-4-yl]amino}-4-methyl-1H-pyrazol-3-yl]benzonitrile] | 8
10 | Cc1nn(-c2cc(Nc3nn(C)c(-c4ccc(F)cc4)c3C)ncn2)c(C)c1Cl [Example 67, 6-(4-chloro-3,5-dimethyl-1H-pyrazol-1-yl)-N-[5-(4-fluorophenyl)-1,4-dimethyl-1H-pyrazol-3-yl]pyrimidin-4-amine] | 3.45
11 | CCc1c(Nc2cc(-n3ncc4c3CCC4)ncn2)n[nH]c1-c1ccc(F)cc1 [Example 27, 6-(5,6-dihydrocyclopenta[c]pyrazol-1 (4H)-yl)-N-[4-ethyl-5-(4-fluorophenyl)-1H-pyrazol-3-yl]pyrimidin-4-amine] | 460
12 | COc1c(-c2ccc(F)cc2)nn(CC2CC2)c1Nc1cc(-n2nc(C)cc2C)ncn1 [Example 315, N-[1-(cyclopropylmethyl)-3-(4-fluorophenyl)-4-methoxy-1H-pyrazol-5-yl]-6-(3,5-dimethyl-1H-pyrazol-1-yl)pyrimidin-4-amine] | 99
13 | CCc1c(Nc2cc(-n3nc4c(c3C)CCCC4)ncn2)nn(C)c1-c1ccc(F)cc1 [Example 46, N-[4-ethyl-5-(4-fluorophenyl)-1-methyl-1H-pyrazol-3-yl]-6-(3-methyl-4,5,6,7-tetrahydro-2H-indazol-2-yl)pyrimidin-4-amine] | 6.5
14 | Cc1nn(-c2cc(Nc3c(C4CC4)c(-c4ccc(F)cc4)nn3C)ncn2)c(C)c1Cl [Example 45, 6-(4-chloro-3,5-dimethyl-1H-pyrazol-1-yl)-N-[4-cyclopropyl-3-(4-fluorophenyl)-1-methyl-1H-pyrazol-5-yl]pyrimidin-4-amine] | 29
15 | CCc1c(-c2ccc(F)cc2)nn(CC2CC2)c1Nc1cc(-n2nc(C)c(C(=O)OC(C)(C)C)c2C(F)F)ncn1 [Example 193, tert-butyl 1-(6-{[1-(cyclopropylmethyl)-4-ethyl-3-(4-fluorophenyl)-1H-pyrazol-5-yl]amino}pyrimidin-4-yl)-5-(difluoromethyl)-3-methyl-1H-pyrazole-4-carboxylate] | 51
16 | CCOC(=O)c1c(C)nn(-c2cc(Nc3c(OC)c(-c4ccc(C#N)cc4)nn3CC3CC3)ncn2)c1C [Example 320, ethyl 1-(6-{[3-(4-cyanophenyl)-1-(cyclopropylmethyl)-4-methoxy-1H-pyrazol-5-yl]amino}pyrimidin-4-yl)-3,5-dimethyl-1H-pyrazole-4-carboxylate] | 71
17 | Cc1nn(-c2cc(Nc3c(C)c(-c4ccc(F)cc4)nn3CC3CC3)ncn2)c(C)c1[S+](C)[O-] (stereo not drawn) [Example 401, N-[1-(cyclopropylmethyl)-3-(4-fluorophenyl)-4-methyl-1H-pyrazol-5-yl]-6-[3,5-dimethyl-4-(methylsulfinyl)-1H-pyrazol-1-yl]pyrimidin-4-amine] | 1400
18 | CCc1c(-c2ccc(F)cc2)nn(C2CC2)c1Nc1cc(-n2nc(C)cc2C)ncn1 [Example 119, N-[1-cyclopropyl-4-ethyl-3-(4-fluorophenyl)-1H-pyrazol-5-yl]-6-(3,5-dimethyl-1H-pyrazol-1-yl)pyrimidin-4-amine] | 870
19 | COc1c(-c2ccc(C#N)cc2)nn(C)c1Nc1cc(-n2nc(C)c(OC)c2C)ncn1 [Example 462, 4-(4-methoxy-5-{[6-(4-methoxy-3,5-dimethyl-1H-pyrazol-1-yl)pyrimidin-4-yl]amino}-1-methyl-1H-pyrazol-3-yl)benzonitrile] | 25
20 | CCc1c(Nc2cc(-n3ncc4c3CCN(C(=O)OC(C)(C)C)C4)ncn2)n[nH]c1-c1ccc(F)cc1 [Example 33, tert-butyl 1-(6-{[4-ethyl-5-(4-fluorophenyl)-1H-pyrazol-3-yl]amino}pyrimidin-4-yl)-1,4,6,7-tetrahydro-5H-pyrazolo[4,3-c]pyridine-5-carboxylate] | 1000
21 | COc1c(C)nn(-c2cc(Nc3c(C)c(-c4ccc(F)cn4)nn3C)ncn2)c1C [Example 468, N-[3-(5-fluoropyridin-2-yl)-1,4-dimethyl-1H-pyrazol-5-yl]-6-(4-methoxy-3,5-dimethyl-1H-pyrazol-1-yl)pyrimidin-4-amine] | 300
22 | Cc1ccc(-c2nn(CC3CC3)c(Nc3cc(-n4nc(C)c(C(F)(F)F)c4C)ncn3)c2C)cn1 [Example 455, N-[1-(cyclopropylmethyl)-4-methyl-3-(6-methylpyridin-3-yl)-1H-pyrazol-5-yl]-6-[3,5-dimethyl-4-(trifluoromethyl)-1H-pyrazol-1-yl]pyrimidin-4-amine] | 165
23 | Cc1cc(C)n(-c2cc(Nc3c(C)c(-c4ccc(F)cn4)nn3C)ncn2)n1 [Example 467, 6-(3,5-dimethyl-1H-pyrazol-1-yl)-N-[3-(5-fluoropyridin-2-yl)-1,4-dimethyl-1H-pyrazol-5-yl]pyrimidin-4-amine] | 69
24 | Cc1nn(-c2cc(Nc3c(C)c(-c4ccc(Cl)cc4)nn3CC3CC3)ncn2)c(C)c1C(C)(C)O [Example 347, 2-[1-(6-{[3-(4-chlorophenyl)-1-(cyclopropylmethyl)-4-methyl-1H-pyrazol-5-yl]amino}pyrimidin-4-yl)-3,5-dimethyl-1H-pyrazol-4-yl]propan-2-ol] | 23
25 | CCOC(=O)Cc1c(C)nn(-c2cc(Nc3nn(C)c(-c4ccc(C#N)cc4)c3OC)ncn2)c1C [Example 492, ethyl [1-(6-{[5-(4-cyanophenyl)-4-methoxy-1-methyl-1H-pyrazol-3-yl]amino}pyrimidin-4-yl)-3,5-dimethyl-1H-pyrazol-4-yl]acetate] | 13
26 | CCc1c(Nc2cc(-n3nc(C)c(Br)c3C)ncn2)nn(C)c1-c1ccc(F)cc1 [Example 191, 6-(4-bromo-3,5-dimethyl-1H-pyrazol-1-yl)-N-[4-ethyl-5-(4-fluorophenyl)-1-methyl-1H-pyrazol-3-yl]pyrimidin-4-amine] | 3
27 | Cc1nn(-c2cc(Nc3c(C)c(-c4ccc(F)cc4)nn3CC3CC3)ncn2)c2c1C(C)(O)CC2 (racemic) [Example 283, (±)-1-(6-{[1-(cyclopropylmethyl)-3-(4-fluorophenyl)-4-methyl-1H-pyrazol-5-yl]amino}pyrimidin-4-yl)-3,4-dimethyl-1,4,5,6-tetrahydrocyclopenta[c]pyrazol-4-ol (Racemate)] | 21
